Assay results published in ChEMBL document CHEMBL1201862, “PubChem BioAssay data set” (2004).
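Method: 48-hour compound exposure of cells in 96-well plates, five concentrations, linear interpolation of endpoints. GI50: concentration for 50% inhibition of growth.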 Active and inactive are the calls of the source. No stated cut-off is given here; in the data, active = GI50 up to about 1.1 µM and inactive = higher.

Key:
Test in all cases: NCI anticancer screen, dose series, 48 h
[1] = test system: LOX IMVI
[2] = test system: 786-0
[3] = test system: UO-31
[4] = test system: BT-549
[5] = test system: SK-MEL-28
[6] = test system: MDA-MB-231
[7] = test system: SN12C
[8] = test system: DU-145
[9] = test system: SF-268
[10] = test system: COLO 205
[11] = test system: SF-539
[12] = test system: CAKI-1
[13] = test system: MOLT-4
[14] = test system: UACC-257
[15] = test system: SK-OV-3
[16] = test system: SR
[17] = test system: K562
[18] = test system: A549

SMILES	GI50 [1]	GI50 [2]	GI50 [3]	GI50 [4]	GI50 [5]	GI50 [6]	GI50 [7]	GI50 [8]	GI50 [9]	GI50 [10]	GI50 [11]	GI50 [12]	GI50 [13]	GI50 [14]	GI50 [15]	GI50 [16]	GI50 [17]	GI50 [18]
CN(CCNC(=S)c1cn(C)c2c1ccc1ccccc12)CCNC(=S)c1cn(C)c2c1ccc1ccccc12	18.5 µM (inactive)	53.6 µM (inactive)	32.1 µM (inactive)	> 100 µM (inactive)	64.4 µM (inactive)	38.7 µM (inactive)	40.9 µM (inactive)	48.2 µM (inactive)	74 µM (inactive)	> 100 µM (inactive)	47.6 µM (inactive)	> 100 µM (inactive)	24.7 µM (inactive)	46.2 µM (inactive)	> 100 µM (inactive)	49.5 µM (inactive)	54.8 µM (inactive)	64.3 µM (inactive)
c1c[nH]c(C23C4C5C6C4C2C6C53)n1 (centres undefined)	> 100 µM (inactive)	> 100 µM (inactive)	> 100 µM (inactive)	> 100 µM (inactive)	> 100 µM (inactive)	> 100 µM (inactive)	> 100 µM (inactive)	> 100 µM (inactive)	> 100 µM (inactive)	> 100 µM (inactive)	> 100 µM (inactive)	> 100 µM (inactive)	> 100 µM (inactive)	> 100 µM (inactive)	> 100 µM (inactive)	> 100 µM (inactive)	> 100 µM (inactive)	> 100 µM (inactive)
CCCNc1[nH]c(C(=O)c2ccccc2)c(N)c1C(=S)Nc1ccccc1	> 100 µM (inactive)	> 100 µM (inactive)	> 100 µM (inactive)	> 100 µM (inactive)	> 100 µM (inactive)	> 100 µM (inactive)	> 100 µM (inactive)	> 100 µM (inactive)	> 100 µM (inactive)	> 100 µM (inactive)	> 100 µM (inactive)	> 100 µM (inactive)	> 100 µM (inactive)	> 100 µM (inactive)	> 100 µM (inactive)	> 100 µM (inactive)	> 100 µM (inactive)	> 100 µM (inactive)
COC1=C(OC)C(=O)C(Cc2c(Cl)nc3n2CCS3)=C(C)C1=O	6.35 µM (inactive)	18.2 µM (inactive)	13.7 µM (inactive)	14.4 µM (inactive)	14.2 µM (inactive)	4.04 µM (inactive)	16.3 µM (inactive)	17.2 µM (inactive)	17.6 µM (inactive)	17.2 µM (inactive)	14.6 µM (inactive)	16.6 µM (inactive)	1.36 µM (inactive)	9.84 µM (inactive)	12.6 µM (inactive)	7.59 µM (inactive)	15.5 µM (inactive)	15.3 µM (inactive)
COc1ccc2oc(=N)c(C(=O)NCc3ccccc3)cc2c1	38.6 µM (inactive)	27.9 µM (inactive)	46.6 µM (inactive)	17.7 µM (inactive)	26.2 µM (inactive)	23.3 µM (inactive)	32.2 µM (inactive)	24.3 µM (inactive)	18.8 µM (inactive)	31.7 µM (inactive)	25.2 µM (inactive)	34.6 µM (inactive)	46.3 µM (inactive)	24.8 µM (inactive)	20.3 µM (inactive)	54.8 µM (inactive)	41.6 µM (inactive)	34 µM (inactive)
Nc1ccc2[nH]c(C(=O)N3CC(CCl)c4c3cc(N)c3ccccc43)cc2c1 (centres undefined)	< 0.01 µM (active)	< 0.01 µM (active)	0.0114 µM (active)	< 0.016 µM (active)	0.013 µM (active)	< 0.0208 µM (active)	< 0.01 µM (active)	< 0.01 µM (active)	< 0.01 µM (active)	0.0101 µM (active)	< 0.01 µM (active)	< 0.01 µM (active)	< 0.01 µM (active)	0.0142 µM (active)	0.0175 µM (active)	< 0.01 µM (active)	< 0.01 µM (active)	< 0.01 µM (active)
C=CC(c1ccccc1)[C@@]1(OC(C)=O)C(=O)C(=O)OC1C1COC(C)(C)O1 (some centres undefined)	4.16 µM (inactive)	10.4 µM (inactive)	11.5 µM (inactive)	12 µM (inactive)	8.32 µM (inactive)	14.4 µM (inactive)	7.66 µM (inactive)	21.2 µM (inactive)	24.2 µM (inactive)	8.26 µM (inactive)	10.4 µM (inactive)	4.72 µM (inactive)	3.7 µM (inactive)	9.71 µM (inactive)	18.1 µM (inactive)	2.43 µM (inactive)	3.94 µM (inactive)	18 µM (inactive)
COc1cc(-c2coc3c(OC)c(OC4OC(CO)C(O)C(O)C4O)c(OC)cc3c2=O)cc(OC)c1C (centres undefined)	3.37 µM (inactive)	1.28 µM (inactive)	4.42 µM (inactive)	4.04 µM (inactive)	4.8 µM (inactive)	15.1 µM (inactive)	4.07 µM (inactive)	8.41 µM (inactive)	4.84 µM (inactive)	17.9 µM (inactive)	3.69 µM (inactive)	14.7 µM (inactive)	5.9 µM (inactive)	14.2 µM (inactive)	7.96 µM (inactive)	4.35 µM (inactive)	7.29 µM (inactive)	7.13 µM (inactive)
